Measurements from patent US11046672B2, “Indolinones compounds and their use in the treatment of fibrotic diseases” (RESPIVERT LIMITED, priority 2015, dated 2021).
Where two headings read alike, the source gives them in different places.

Assays:
PDGFRβ [1] = target: T1, PDGFRβ (Homo sapiens (Human), UniProt P09619); assay: PDGF-BB induced phosphorylation of PDGFRβ in fibroblasts (MRC5 cells, HTRF); format: cell-based; settings: MRC5 cells; n = 1 unless otherwise indicated; read-out: PDGFBB-induced PDGFRβ phosphorylation in MRC5 cells (IC50)
PDGFRβ [2] = target: T1, PDGFRβ; settings: read-out: Ki PDGFRβ; mean, n = 2 unless otherwise indicated
PAMPA permeability assay = format: in vitro ADME; settings: for recovery at 5 hr, 10 μM: pH 7, PAMPA; for Papp at 5 h, 10 μM: pH 7, pH 7, 10 μM
MRC5 cells = assay: Cell viability assay in MRC5 cells (MTT)
PDGFRβ [3] = target: T1, PDGFRβ; assay: Duration of action (washout) against PDGF-BB induced phosphorylation of PDGFRβ in human fetal lung fibroblast cells; format: cell-based; settings: MRC-5 cells, after wash-out, rhuPDGF-BB; experiments in Groups 1-4
[4] = Pharmacokinetic measurements in rats (intravenous and intra-tracheal dosing); format: in vivo; settings: rat; for concentration at 0.1 h / concentration at 1.5 h / concentration at 24 h / Kp at 0.1 h / Kp at 1.5 h / Kp at 24 h: male, CD; for concentration at 0.1 h / concentration at 1.5 h / concentration at 24 h: lung, read-out: lung concentration (nM) at time (h); for Kp at 0.1 h / Kp at 1.5 h / Kp at 24 h: lung/plasma
[5] = PAMPA, donor and acceptor compartments

T1 sequence (P09619 33-1106): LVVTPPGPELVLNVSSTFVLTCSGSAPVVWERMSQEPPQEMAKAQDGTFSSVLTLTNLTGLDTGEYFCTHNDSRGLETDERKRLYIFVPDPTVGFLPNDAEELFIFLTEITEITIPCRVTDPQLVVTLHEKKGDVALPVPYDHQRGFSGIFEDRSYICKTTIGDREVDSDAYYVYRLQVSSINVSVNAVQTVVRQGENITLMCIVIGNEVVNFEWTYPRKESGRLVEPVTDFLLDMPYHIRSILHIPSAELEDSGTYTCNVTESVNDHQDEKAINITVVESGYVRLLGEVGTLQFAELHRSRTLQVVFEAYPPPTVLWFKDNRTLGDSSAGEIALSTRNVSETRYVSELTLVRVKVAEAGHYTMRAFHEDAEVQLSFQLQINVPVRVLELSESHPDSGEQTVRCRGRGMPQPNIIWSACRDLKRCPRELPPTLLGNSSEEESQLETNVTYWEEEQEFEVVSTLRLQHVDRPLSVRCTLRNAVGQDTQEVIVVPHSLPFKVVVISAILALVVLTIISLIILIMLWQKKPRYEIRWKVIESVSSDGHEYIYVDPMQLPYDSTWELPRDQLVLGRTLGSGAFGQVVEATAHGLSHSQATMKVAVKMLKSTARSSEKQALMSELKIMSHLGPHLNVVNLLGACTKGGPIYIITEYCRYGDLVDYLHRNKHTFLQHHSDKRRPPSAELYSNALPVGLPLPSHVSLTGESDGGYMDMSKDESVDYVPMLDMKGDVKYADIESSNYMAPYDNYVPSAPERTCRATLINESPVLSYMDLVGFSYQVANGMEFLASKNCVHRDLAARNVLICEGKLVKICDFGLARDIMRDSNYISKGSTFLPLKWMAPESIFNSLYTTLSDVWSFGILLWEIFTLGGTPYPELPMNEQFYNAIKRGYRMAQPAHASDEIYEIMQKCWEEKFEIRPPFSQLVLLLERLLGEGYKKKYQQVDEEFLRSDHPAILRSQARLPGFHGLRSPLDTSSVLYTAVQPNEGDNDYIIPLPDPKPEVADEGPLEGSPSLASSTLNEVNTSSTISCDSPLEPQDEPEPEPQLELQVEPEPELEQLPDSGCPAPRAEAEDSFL

Compound: COC(=O)c1cc2c(cc1C)/C(=C(/Nc1ccc(C(=O)NOCCN3CC[C@H](N(C)C)C3)cc1)c1ccccc1)C(=O)N2 [Example 51]
- IC50 (PDGFRβ [1]): 9.39 nM
- Ki (PDGFRβ [2]): 9.44 nM
- % Recovery (PAMPA permeability assay; [5]): 74.7%
- recovery at 5 hr, 10 μM (PAMPA permeability assay; [5]): 62%
- Papp at 5 h, 10 μM (PAMPA permeability assay; PAMPA, 5 hr): 0.00306 ×10⁻⁶ cm/s
- Mean Papp (PAMPA permeability assay; pH 7, 10 μM, 5 hr): 0.00474 10^−6 cm s^−1
- Cell viability at 100 nM (%) (MRC5 cells): 86.5%
- Cell viability at 300 nM (%) (MRC5 cells): 85.8%
- Cell viability at 1000 nM (%) (MRC5 cells): 71.2%

Compound: COC(=O)c1ccc2c(c1)NC(=O)/C2=C(\Nc1ccc(C(=O)N(C)OCCN2CCN(C)CC2)c(C)c1)c1ccccc1 [Example 18]
- IC50 (PDGFRβ [1]): 3.68 nM
- Ki (PDGFRβ [2]): 11 nM
- recovery at 5 hr, 10 μM (PAMPA permeability assay; [5]): 51.5%
- Papp at 5 h, 10 μM (PAMPA permeability assay; PAMPA, 5 hr): 0.424 ×10⁻⁶ cm/s
- Cell viability at 100 nM (%) (MRC5 cells): 104.5%
- Cell viability at 300 nM (%) (MRC5 cells): 90.3%
- Cell viability at 1000 nM (%) (MRC5 cells): 68.7%

Compound: COC(=O)c1ccc2c(c1)NC(=O)/C2=C(\Nc1ccc(C(=O)NOCCN2CCN(C)CC2)c(F)c1)c1ccccc1 [Example 33]
- IC50 (PDGFRβ [1]): 8.99 nM
- Ki (PDGFRβ [2]): 8.47 nM
- recovery at 5 hr, 10 μM (PAMPA permeability assay; [5]): 71.9%
- Papp at 5 h, 10 μM (PAMPA permeability assay; PAMPA, 5 hr): 0.00743 ×10⁻⁶ cm/s
- Cell viability at 100 nM (%) (MRC5 cells): 110.7%
- Cell viability at 300 nM (%) (MRC5 cells): 101.3%
- Cell viability at 1000 nM (%) (MRC5 cells): 91.3%

Compound: COC(=O)c1cc2c(cc1C)/C(=C(/Nc1ccc(C(=O)N(C)OCCN3CCNCC3)cc1)c1ccccc1)C(=O)N2 [Example 57]
- % phos: percentage phosphorylation after wash-out relative to maximal phosphorylation (100%) (PDGFRβ [3]): 73.1%
- IC50 (PDGFRβ [1]): 5.04 nM
- Ki (PDGFRβ [2]): 9.84 nM
- recovery at 5 hr, 10 μM (PAMPA permeability assay; [5]): 50.5%
- Papp at 5 h, 10 μM (PAMPA permeability assay; PAMPA, 5 hr): 0.688 ×10⁻⁶ cm/s
- Cell viability at 100 nM (%) (MRC5 cells): 123.5%
- Cell viability at 300 nM (%) (MRC5 cells): 123.2%
- Cell viability at 1000 nM (%) (MRC5 cells): 91.2%

Compound: COC(=O)c1cc2c(cc1C)/C(=C(/Nc1ccc(C(=O)N(C)OCCN(C)CCO)cc1)c1ccccc1)C(=O)N2 [Example 56]
- IC50 (PDGFRβ [1]): 3.95 nM
- Ki (PDGFRβ [2]): 7.19 nM
- recovery at 5 hr, 10 μM (PAMPA permeability assay; [5]): 69.7%
- Papp at 5 h, 10 μM (PAMPA permeability assay; PAMPA, 5 hr): 0.719 ×10⁻⁶ cm/s
- Cell viability at 100 nM (%) (MRC5 cells): 132%
- Cell viability at 300 nM (%) (MRC5 cells): 121%
- Cell viability at 1000 nM (%) (MRC5 cells): 70.5%

Compound: COC(=O)c1cc2c(cc1C)/C(=C(/Nc1ccc(C(=O)NOC3CCN(C)CC3)cc1)c1ccccc1)C(=O)N2 [Example 30]
- IC50 (PDGFRβ [1]): 7.43 nM
- Ki (PDGFRβ [2]): 7.32 nM
- recovery at 5 hr, 10 μM (PAMPA permeability assay; [5]): 87%
- Papp at 5 h, 10 μM (PAMPA permeability assay; PAMPA, 5 hr): 0.00225 ×10⁻⁶ cm/s
- Cell viability at 100 nM (%) (MRC5 cells): 96.1%
- Cell viability at 300 nM (%) (MRC5 cells): 87.7%
- Cell viability at 1000 nM (%) (MRC5 cells): 26%

Compound: COC(=O)c1ccc2c(c1)NC(=O)/C2=C(\Nc1ccc(C(=O)NOCCN2CCC(C#N)CC2)cc1)c1ccccc1 [Example 43]
- IC50 (PDGFRβ [1]): 25.7 nM
- Ki (PDGFRβ [2]): 32.4 nM
- recovery at 5 hr, 10 μM (PAMPA permeability assay; [5]): 75.3%
- Papp at 5 h, 10 μM (PAMPA permeability assay; PAMPA, 5 hr): 0.00798 ×10⁻⁶ cm/s
- Cell viability at 100 nM (%) (MRC5 cells): 96.5%
- Cell viability at 300 nM (%) (MRC5 cells): 91.8%
- Cell viability at 1000 nM (%) (MRC5 cells): 83.9%

Compound: COC(=O)c1ccc2c(c1)NC(=O)/C2=C(\Nc1ccc(S(=O)(=O)NOCCN(C)C)cc1)c1ccccc1 [Example 15]
- concentration at 0.1 h ([4]; iv, i.v. dosing, 0.1 h): 501 nM
- concentration at 1.5 h ([4]; iv, i.v. dosing, 1.5 h): 209 nM
- concentration at 24 h ([4]; iv, i.v. dosing, 24 h): 66 nM
- concentration at 0.1 h ([4]; other: intra-tracheal, i.t. dosing, 0.1 h): 3430 nM
- concentration at 1.5 h ([4]; other: intra-tracheal, i.t. dosing, 1.5 h): 1370 nM
- concentration at 24 h ([4]; other: intra-tracheal, i.t. dosing, 24 h): 135 nM
- Kp at 0.1 h ([4]; iv, i.v. dosing, 0.1 h, read-out: lung/plasma ratio at time(h)): 55
- Kp at 1.5 h ([4]; iv, i.v. dosing, 1.5 h, read-out: lung/plasma ratio at time(h)): 62
- Kp at 24 h ([4]; iv, i.v. dosing, 24 h, read-out: lung/plasma ratio at time(h)): 103
- Kp at 0.1 h ([4]; other: intra-tracheal, i.t. dosing, 0.1 h, read-out: lung/plasma conc ratio at time(h)): 177
- Kp at 1.5 h ([4]; other: intra-tracheal, i.t. dosing, 1.5 h, read-out: lung/plasma conc ratio at time(h)): 884
- Kp at 24 h ([4]; other: intra-tracheal, i.t. dosing, 24 h, read-out: lung/plasma conc ratio at time(h)): 314
- Lung conc i.t./i.v. Ratio at time (h) ([4]; 0.1 h): 6.9
- Lung conc i.t./i.v. Ratio at time (h) ([4]; 1.5 h): 6.6
- Lung conc i.t./i.v. Ratio at time (h) ([4]; 24 h): 2.0
- BAL % administered dose at time (h) ([4]; i.t. dosing, 0.1 h): 2.4%
- BAL % administered dose at time (h) ([4]; i.t. dosing, 1.5 h): 0.6%
- BAL % administered dose at time (h) ([4]; i.t. dosing, 24 h): 0.1%
- BAL % administered dose at time (h) ([4]; i.v. dosing, 0.1 h): 0.09%
- BAL % administered dose at time (h) ([4]; i.v. dosing, 1.5 h): 0.02%
- BAL % administered dose at time (h) ([4]; i.v. dosing, 24 h): 0.01%
- IC50 (PDGFRβ [1]): 19.9 nM
- Ki (PDGFRβ [2]): 21.7 nM
- recovery at 5 hr, 10 μM (PAMPA permeability assay; [5]): 37.6%
- Papp at 5 h, 10 μM (PAMPA permeability assay; PAMPA, 5 hr): 0.0756 ×10⁻⁶ cm/s
- Cell viability at 100 nM (%) (MRC5 cells): 106.9%
- Cell viability at 300 nM (%) (MRC5 cells): 99%
- Cell viability at 1000 nM (%) (MRC5 cells): 97.5%
